Reference: paper doi:10.1101/2025.08.13.670122v1 (bioRxiv, 2025)
Where two headings read alike, the source gives them in different places.

Assays:
[1] = target: T1, endogenous AT1R (Rattus norvegicus, UniProt P25095); assay: Rho BRET sensor in rat primary VSMC with endogenous AT1R; type: cell-based; conditions: for Emax Rho in VSMCs (% AngII): Rho sensor, for 12 and TRV027 response at 10 μM; for EC50: adenoviral Rho BRET sensor, 1 min 30 s stimulation, mean ± SEM of at least three to five independent experiments, read-out: EC50 Rho in VSMCs
T1 construct: expressing low levels of endogenous AT1R; endogenous in cells; host or cells: rat primary VSMC, passages 13-15
T1 sequence (P25095 1-359): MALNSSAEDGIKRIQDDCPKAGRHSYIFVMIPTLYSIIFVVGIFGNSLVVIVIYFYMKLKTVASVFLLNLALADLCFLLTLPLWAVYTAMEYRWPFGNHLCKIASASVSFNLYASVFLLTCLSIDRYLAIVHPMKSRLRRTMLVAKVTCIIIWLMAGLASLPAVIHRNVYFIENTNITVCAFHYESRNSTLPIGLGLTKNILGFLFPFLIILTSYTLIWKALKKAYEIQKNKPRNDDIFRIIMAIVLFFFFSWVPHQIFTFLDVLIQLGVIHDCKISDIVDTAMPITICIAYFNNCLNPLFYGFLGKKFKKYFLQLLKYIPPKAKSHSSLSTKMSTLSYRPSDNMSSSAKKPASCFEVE
Excerpt: We next assessed the analogs’ ability to engage Gαq by assessing either the PKC or Rho responses in rat primary vascular smooth muscle cell (VSMC) culture, expressing low levels of endogenous AT1R (between 25–50 fmol/mg) (Figure 4, Table 6).
The coding regions of the PKC-c1b sensor, PKN-RBD-RlucII, and rGFPcaax were PCR-amplified and subcloned into the KpnI/XhoI sites of the pENTR3C vector (Invitrogen), respectively. These were then transferred into the adenoviral expression vector pAd/CMV/V5-DEST (Invitrogen), via gateway cloning (pAD-CMV-PKC-c1b, pAD-CMV-PKN-RBD-RLucII, and pAD-CMV-rGFPcaax). Viruses containing the sensor codes were generated following a previously outlined process.[49] […] The following day, cells were transfected with 4 µg of PacI-digested pAd5-CMVsensors using Lipofectamine 2000 (Invitrogen). After 7–10 days post-transfection, mature virus particles were gleaned via the collection of cells and media, which then underwent multiple cycles of freezing and thawing, followed by centrifugation. The harvested virus was amplified by re-infection on 100-mm dishes of confluent HEK293A cells, and harvested 48-72 h later. Viral titers were determined by serial dilution of adenovirus stock and subsequent infection of HEK293A cells in 96-well plates. 36 h after infection, cells were stained using an anti-hexon antibody (ab8249; Abcam), and hexon-expressing cells were tallied via fluorescence microscopy. The virus was then stored at −80°C. After this, rat VSMCs (between the 13th to 15th passages) were seeded at a density of 20,000 cells in each well of white 96-well plates 24 h before transduction with the viral vector. The cells were then transduced with the PKC sensor-adenovirus (3 μL per well) or Rho sensor (1 μL each per well of PKN-RBD-RLucII-adnovirus and rGFP-caax adenovirus). After 24 h, the medium was replaced. 48 h post-viral transduction, the cells were thoroughly washed with Tyrode’s buffer. Finally, BRET assays were carried out as detailed below.
On the day of the experiment, each well was washed with 80 µL of Tyrode’s buffer (140 mM NaCl, 2.7 mM KCl, 1 mM CaCl2, 12 mM NaHCO3, 5.6 mM D-glucose, 0.5 mM MgCl2, 0.37 mM NaH2PO4, 25 mM Hepes (pH 7.4)). This was followed by incubation for 1 h in Tyrode’s buffer at room temperature. For the Gαq, β-arrestin-2, and PKC biosensors used in HEK293 cells, coelenterazine 400A (at a final concentration of 5 μM) was added 10 min before stimulation. Cells were then stimulated with increasing doses of the indicated ligand, and BRET signals were measured using a Tristar2 (Berthold) microplate reader 10 min later. For the PKC and Rho biosensors in VSMCs, and the Rho biosensor in ΔG12/13 cells, cells were similarly stimulated with ligands for 1 min, 1 min 30 s, and 3 min, respectively, before BRET measurement. […] BRET signals were then measured using a Synergy2 (BioTek) microplate reader. The applied filter set was 410/80 nm and 515/30 nm, designed to detect the light emissions of RlucII (Renilla luciferase) (donor) and rGFP (acceptor), respectively.

[2] = Plasma stability; type: in vitro ADME; conditions: male Sprague-Dawley rat plasma, 6 μL of 1 mM compound (10% DMSO) in 27 μL plasma, 37°C, 0-24 h, UPLC-MS, one-phase decay, mean ± SEM of at least three experiments, read-out: Plasmatic half-life t1/2 (±SEM)
Experimental: The degradation was quenched by adding 140 μL of 1% formic acid in an acetonitrile-ethanol (1:1) solution containing 0.25 mM of N,N-dimethylbenzamide (used as an internal standard). This mixture was initially transferred to an Impact Protein Precipitation filter plate (Phenomenex, California), the filtrates from which were subsequently collected in a second 96-well UPLC plate. Both plates were centrifuged at 500 g for 10 min while maintaining a temperature of 4°C. The filtrates were then diluted with 30 μL of distilled water and processed for analysis using an Acquity UPLC-MS system class H (using an Acquity UPLC protein BEH C18 column that measured 2.1 mm × 50 mm and had 1.7 μm particles with pores 130 Å in width). The peptide half-life, derived from the degradation curve, was calculated using the exponential one-phase decay function in GraphPad Prism 9. Degradation was estimated by comparing the mass spectrum at each point with those at the zero-minute mark. The data were presented as a mean ± SEM of at least three unique experiments, each performed in singlicate.

Emax Rho in VSMCs (% AngII) [1]	EC50 ([1]; SEM)	half-life at 182 µM [2]	EC50 [1]	SMILES
92 % AngII	0.0391 ± 0.011 µM	33 ± 4 min		CC[C@H](C)[C@H](NC(=O)[C@H](Cc1ccc(O)cc1)NC(=O)[C@@H](NC(=O)[C@H](CCCNC(=N)N)NC(=O)[C@@H](N)CC(=O)O)C(C)C)C(=O)N[C@@H](Cc1c[nH]cn1)C(=O)N1CCC[C@H]1C(=O)N[C@@H](Cc1ccc(OC)cc1)C(=O)O [compound 11]
12 % AngII		32 ± 3 min	> 10 µM	CC[C@H](C)[C@H](NC(=O)[C@H](Cc1ccc(O)cc1)NC(=O)[C@@H](NC(=O)[C@H](CCCNC(=N)N)NC(=O)[C@@H](N)CC(=O)O)C(C)C)C(=O)N[C@@H](Cc1c[nH]cn1)C(=O)N1CCC[C@H]1C(=O)N[C@@H](Cc1ccc(OCc2ccccc2)cc1)C(=O)O [compound 12]
